Patent US12378208B2, “N-substituted oseltamivir derivatives with antimicrobial activity” (THE HONG KONG POLYTECHNIC UNIVERSITY, priority 2019, dated 2025)

Assays:
NA from A/H3N2 = NA from A/H3N2 (Influenza A virus, UniProt O91745); experiment: biochemical; type: biochemical, seasonal A/H3N2; conditions: for IC50: Table 4, Example 34
[1] = tested on: influenza A virus A/OK/447/08 (H1N1); experiment: Plaque assay in MDCK cells; type: cell-based; conditions: […]
neuraminidase = neuraminidase (Influenza A virus, UniProt O91745); conditions: previous studies (Ye et al., 2019); read-out: half maximal inhibitory concentration (IC50); cited from earlier work
Chain of neuraminidase (O91745 whole entry): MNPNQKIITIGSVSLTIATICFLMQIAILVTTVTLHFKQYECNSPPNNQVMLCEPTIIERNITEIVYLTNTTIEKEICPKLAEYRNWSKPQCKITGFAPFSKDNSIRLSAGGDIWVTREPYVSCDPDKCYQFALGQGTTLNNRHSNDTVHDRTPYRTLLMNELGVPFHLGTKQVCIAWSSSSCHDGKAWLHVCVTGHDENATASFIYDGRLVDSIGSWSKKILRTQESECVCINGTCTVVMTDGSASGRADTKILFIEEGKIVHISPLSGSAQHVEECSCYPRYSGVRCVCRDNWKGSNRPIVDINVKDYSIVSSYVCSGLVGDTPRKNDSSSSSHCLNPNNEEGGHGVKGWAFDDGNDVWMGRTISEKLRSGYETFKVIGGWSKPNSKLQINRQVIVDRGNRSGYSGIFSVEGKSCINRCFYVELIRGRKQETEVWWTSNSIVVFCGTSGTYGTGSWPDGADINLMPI

Chain of NA from A/H3N2 (O91745 whole entry, looked up): as the sequence (O91745 whole entry) above

Row | Structure (SMILES) | Inhibition rate, 1 μM (NA from A/H3N2) [%] | Inhibition rate, 10 μM (NA from A/H3N2) [%] | IC50 (NA from A/H3N2) [µM] | plaque count ([1]; two concentrations) | plaque size ([1]; two concentrations (oseltamivir 0.1/0.2 nM, S7 1.9/3.8 nM, S22 1.6/3.2 nM)) | IC50 (neuraminidase) [µM]
1 | CCC(CC)O[C@@H]1C=C(C(=O)O)C[C@H](NC(=O)c2cc(-c3cccs3)n[nH]2)[C@H]1NC(C)=O [OC-014] | 21.57 | 40.02 | – | – | – | –
2 | CCC(CC)O[C@@H]1C=C(C(=O)O)C[C@H](NC(=O)c2cc(-c3ccc(Cl)cc3)nn2CC2CC2)[C@H]1NC(C)=O [OC-015] | 16.52 | 31.50 | – | – | – | –
3 | CCC(CC)O[C@@H]1C=C(C(=O)O)C[C@H](NC(=O)c2cnn(-c3ccccc3C)c2)[C@H]1NC(C)=O [OC-016] | 12.74 | 38.37 | – | – | – | –
4 | CCC(CC)O[C@@H]1C=C(C(=O)O)C[C@H](NC(=O)c2cc(-c3ccc(OC)cc3)n[nH]2)[C@H]1NC(C)=O [OC-017] | 14.83 | 42.02 | – | – | – | –
5 | CCC(CC)O[C@@H]1C=C(C(=O)O)C[C@H](NC(=O)c2cc(-c3ccc(Cl)cc3)nn2CC2CCC2)[C@H]1NC(C)=O [OC-018] | 11.12 | 39.81 | – | – | – | –
6 | CCC(CC)O[C@@H]1C=C(C(=O)O)C[C@H](NC(=O)c2cc(-c3ccc(Cl)cc3)nn2CC2CCCCC2)[C@H]1NC(C)=O [OC-019] | 11.62 | 48.50 | – | – | – | –
7 | CCC(CC)O[C@@H]1C=C(C(=O)O)C[C@H](NC(=O)c2cc(C3CC3)n(-c3ccc(C(F)(F)F)cc3)n2)[C@H]1NC(C)=O [OC-020] | 8.26 | 44.47 | – | – | – | –
8 | CCC(CC)O[C@@H]1C=C(C(=O)O)C[C@H](NC(=O)c2cc(C3CC3)n(-c3ccccc3)n2)[C@H]1NC(C)=O [OC-021] | 7.13 | 30.57 | – | – | – | –
9 | CCC(CC)O[C@@H]1C=C(C(=O)O)C[C@H](NC(=O)c2cnn(-c3ccc(OC)cc3)c2)[C@H]1NC(C)=O [OC-022] | 6.31 | 34.15 | – | – | – | –
10 | CCC(CC)O[C@@H]1C=C(C(=O)O)C[C@H](NC(=O)c2cc(C3CC3)n(-c3cccc(C)c3)n2)[C@H]1NC(C)=O [OC-023] | 6.24 | 34.75 | – | – | – | –
11 | CCC(CC)O[C@@H]1C=C(C(=O)O)C[C@H](NC(=O)c2cc(C3CC3)n(-c3ccc(Br)cc3)n2)[C@H]1NC(C)=O [OC-024] | 5.84 | 42.68 | – | – | – | –
12 | CCC(CC)O[C@@H]1C=C(C(=O)O)C[C@H](NC(=O)c2cc(C3CC3)nn2-c2ccc(Br)cc2)[C@H]1NC(C)=O [OC-025] | 2.19 | 37.17 | – | – | – | –
13 | CCC(CC)O[C@@H]1C=C(C(=O)O)C[C@H](NC(=O)c2cnn(-c3ccc(Cl)cc3)c2)[C@H]1NC(C)=O [OC-026] | −0.26 | 25.67 | – | – | – | –
14 | CCC(CC)O[C@@H]1C=C(C(=O)O)C[C@H](NC(=O)c2cc(C3CC3)nn2-c2cccc(C)c2)[C@H]1NC(C)=O [OC-027] | 0.70 | 31.53 | – | – | – | –
15 | CCC(CC)O[C@@H]1C=C(C(=O)O)C[C@H](NC(=O)c2cc(C3CC3)n(-c3ccccc3C)n2)[C@H]1NC(C)=O [OC-028] | 8.06 | 60.91 | 22.7 | – | – | –
16 | CCC(CC)O[C@@H]1C=C(C(=O)O)C[C@H](NC(=O)c2cc(C3CC3)nn2-c2ccccc2C)[C@H]1NC(C)=O [OC-029] | 23.28 | 72.80 | 16.9 | – | – | –
17 | CCOC(=O)C1=C[C@@H](OC(CC)CC)[C@H](NC(C)=O)[C@@H](N)C1 [oseltamivir] | – | – | – | not plaque count | reduction in plaque size | 0.0001
